From patent publication US20060240400A1, “High-density cell array board, process for producing the same and method of using the same” (priority 2003, published 2006)

System: rat primary hepatic solid tumor cells
Assay: Chemical assay on high-density cell array substrate (cell morphology after microdispensed dichlorobenzene)
Format: cell-based
Conditions: after 10 minutes, 37° C., 0-4.5 mM in steps of 0.5 mM in 10 pl culture medium, single cells on substrates of Examples 1-5
Protocol: Poly-N-isopropylacrylamide, polyacrylamide and polydimethylsiloxane were used as cell adhesive polymer, hydrophilic polymer and highly hydrophobic polymer, respectively. These solutions were used for preparing each layer by the procedure described below. First, a solution of N-isopropylacrylamide monomer in isopropyl alcohol at the concentration shown in Table 1 was applied on a polystyrene base in an amount of 0.01 ml/cm^2 in order to prepare a cell adhesive polymer-coated domain. The coating was irradiated with electron beams at a dose of 0.25 MGy to coat the surface of the base with poly-N-isopropylacrylamide. After irradiation, the substrate was thoroughly washed with water and dried to give a substrate having a poly-N-isopropylacrylamide layer. Then, a solution of acrylamide monomer in isopropyl alcohol at the concentration shown in Table 1 was applied on the substrate in an amount of 0.01 ml/cm^2 in order to prepare a cell non-adhesive hydrophilic polymer-coated domain on the preceding layer. The coating was irradiated with electron beams at a dose similar to the value used in the method described above and then washed and dried to give a substrate having a polyacrylamide layer on the poly-N-isopropylacrylamide layer. […]

dichlorobenzene
dichlorobenzene concentration in culture medium at which cells were morphologically altered: ≥ 2.5 mM
